SMILES strings stand for the structures.

In assay [1] the target is T1, 5-hydroxytryptamine receptor 1A (Rattus norvegicus, UniProt P19327).
T1 sequence (P19327 whole entry): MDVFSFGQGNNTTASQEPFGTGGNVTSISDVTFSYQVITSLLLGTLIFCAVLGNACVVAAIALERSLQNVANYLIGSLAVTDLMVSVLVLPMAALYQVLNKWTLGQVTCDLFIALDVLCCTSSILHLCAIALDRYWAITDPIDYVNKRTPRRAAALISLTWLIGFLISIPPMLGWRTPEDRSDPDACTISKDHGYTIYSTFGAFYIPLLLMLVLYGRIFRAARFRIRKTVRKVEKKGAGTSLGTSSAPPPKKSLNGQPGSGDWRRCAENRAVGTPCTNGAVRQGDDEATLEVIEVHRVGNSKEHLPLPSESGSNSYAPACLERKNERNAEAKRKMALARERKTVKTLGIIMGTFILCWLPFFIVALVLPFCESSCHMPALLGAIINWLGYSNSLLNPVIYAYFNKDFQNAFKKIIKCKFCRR
The experiment in a line: Binding affinity towards serotonin 5-HT1A receptor was determined in rat hippocampus using [3H]8-OH-DPAT as ligand. Format: tissue-based.

Assay [2] concerns the target Serotonin 2 (5-HT2) receptor (Rattus norvegicus, UniProt P30994+P08909+P14842). The experiment in a line: Binding affinity towards serotonin 5-HT2 receptor was determined in rat cortex using [3H]spiperone as ligand.
For a further assay, the target named is D(2) dopamine receptor (Rattus norvegicus, UniProt P61169). Kind of assay: Binding affinity towards Dopamine receptor D2 was determined in rat striatum using [3H]- spiperone as radioligand. In kind it is tissue-based.
For assay [3], the system named is Rattus norvegicus. The experiment in a line: Compound at an intraperitoneal dose of 10 mg/Kg was tested for the inhibition of apomorphine-induced stereotypy in rat. In kind it is functional. On the set-up: scale not given: the % may be the effect or the level left.
Assay [4] can be described thus: Intraperitoneal effective dose required for inhibition of apomorphine-induced stereotypy in rat. Format: functional. The conditions noted are these: ip.
The subject of assay [5] is Rattus norvegicus. Kind of assay: Compound at an intraperitoneal dose of 80 mg/Kg was tested for the inhibition of apomorphine-induced stereotypy in rat. In kind it is functional. On the set-up: scale not given: the % may be the effect or the level left.
Assay [6] in a line: Compound at an intraperitoneal dose of 40 mg/Kg was tested for the inhibition of apomorphine-induced stereotypy in rat. Format: functional. Also on record: scale not given: the % may be the effect or the level left.
The subject of assay [7] is Rattus norvegicus. Kind of assay: Compound at an intraperitoneal dose of 2.5 mg/Kg was tested for the inhibition of apomorphine-induced stereotypy in rat. Format: functional. Also on record: scale not given: the % may be the effect or the level left.
Assay [8] concerns Rattus norvegicus. The experiment in a line: Compound at an intraperitoneal dose of 5 mg/Kg was tested for the inhibition of apomorphine-induced stereotypy in rat. Also on record: scale not given: the % may be the effect or the level left. Format: functional.
Assay [9] concerns Rattus norvegicus. The experiment in a line: Compound at an intraperitoneal dose of 20 mg/Kg was tested for the inhibition of apomorphine-induced stereotypy in rat. Format: functional. On the set-up: scale not given: the % may be the effect or the level left.

Chain of D(2) dopamine receptor (P61169 whole entry): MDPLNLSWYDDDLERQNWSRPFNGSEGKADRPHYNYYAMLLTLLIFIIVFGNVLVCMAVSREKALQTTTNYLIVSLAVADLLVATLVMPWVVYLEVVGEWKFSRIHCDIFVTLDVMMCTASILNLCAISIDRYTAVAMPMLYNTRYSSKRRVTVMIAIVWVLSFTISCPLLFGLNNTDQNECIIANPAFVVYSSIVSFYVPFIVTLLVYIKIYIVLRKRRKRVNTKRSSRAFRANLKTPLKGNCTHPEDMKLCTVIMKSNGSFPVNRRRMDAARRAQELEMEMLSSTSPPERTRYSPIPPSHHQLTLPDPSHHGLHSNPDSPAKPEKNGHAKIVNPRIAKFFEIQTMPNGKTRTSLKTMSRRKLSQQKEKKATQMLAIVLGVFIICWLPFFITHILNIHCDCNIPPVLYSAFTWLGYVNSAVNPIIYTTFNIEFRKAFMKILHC

For the molecule `Cc1ccccc1N1CCN(CCCCN2CSC(C)(C)C2=O)CC1`, the half-inhibitory concentration (IC50) (as a rule, the midpoint of a concentration-inhibition curve) was 13 nM in assay [1], 569 nM in assay [2] and 1770 nM at D(2) dopamine receptor.
On to `Cc1cccc(N2CCN(CCCCN3CSC(C)(C)C3=O)CC2)c1C`, for which the IC50 turned out to be 6 nM in assay [1], 414 nM in assay [2] and 916 nM on D(2) dopamine receptor.
Take `CC1(C)SCN(CCCCN2CCN(c3csc4cc(F)ccc34)CC2)C1=O`: the IC50 in [2] amounted to 10 nM; at D(2) dopamine receptor, 14 nM. The molecule also returned an Activity in the assay on Rattus norvegicus [3] of 0%.
`CC1SC2(CCCC2)C(=O)N1CCCCN1CCN(c2cn(-c3ccccc3)c3ccccc23)CC1` (stereo not drawn): the IC50 in assay [1] amounted to 11700 nM; in assay [2], 98.1 nM; on D(2) dopamine receptor, 356 nM. For the same molecule, the ED50 (usually the dose at which the effect has come halfway, by size or by number of responders) in [4] came to 41.7 mg/kg.
As for `CC1(C)SCN(CCCCN2CCN(c3nsc4ccccc34)CC2)C1=O`, the values for the IC50 in assay [1] and in assay [2] were 8 nM and 1 nM, respectively. In [4], this molecule returned an ED50 of 8.9 mg/kg.
Take `CC1(C)SCN(CCCCN2CCN(c3cn(-c4ccc(F)cc4)c4ccccc34)CC2)C1=O`: the IC50 in [1] came to 2330 nM; in assay [2], 53 nM; at D(2) dopamine receptor, 131 nM. In assay [4], this molecule showed an ED50 of 7.1 mg/kg.
As for `O=C1N(CCCCN2CCN(c3cn(-c4ccccc4)c4ccccc34)CC2)CSC12CCCCC2`, the values for the concentration for half-maximal inhibition (IC50) (in assay [2]; on D(2) dopamine receptor) were 45 nM and 467 nM, respectively. Further, the 50% effect level in assay [4] (ED50) was put at a dose of 27.4 mg/kg.
For `O=C1N(CCCCN2CCN(c3cn(-c4ccc(F)cc4)c4ccccc34)CC2)CSC12CCCCC2`, the values for the IC50 (in assay [1]; in assay [2]; at D(2) dopamine receptor) were 9030 nM, 142 nM and 18 nM, respectively.
On to `CSc1cccc(N2CCN(CCCCN3C(=O)CSC3(C)C)CC2)c1`, for which the IC50 in assay [1] worked out at 9 nM; in assay [2], 503 nM; at D(2) dopamine receptor, 2430 nM.
Take `O=C1N(CCCCN2CCN(c3csc4ccccc34)CC2)CSC12CCCCC2`: the 50% inhibitory concentration (IC50) in assay [1] was found to be 102 nM; in [2] it was 196 nM; on D(2) dopamine receptor, 218 nM. Also, the figures for the Activity (with Rattus norvegicus [5]; in [6]) were 50% and 33%, respectively.
`CC(C)(O)C1SCN(CCCCN2CCN(c3csc4cc(F)ccc34)CC2)C1=O` (stereo not drawn): the IC50 in assay [1] was 91 nM; in assay [2], 105 nM; at D(2) dopamine receptor it was 453 nM. The Activity in the assay on Rattus norvegicus [7] stood at 10%; in the assay on Rattus norvegicus [8], 40%.
`CC1SC2(CCCC2)C(=O)N1CCCCN1CCN(c2csc3cc(Cl)ccc23)CC1` (stereo not drawn): the IC50 in assay [1] worked out at 776 nM; in assay [2], 580 nM; on D(2) dopamine receptor, 611 nM.
As for `O=C1N(CCCCN2CCN(c3nsc4ccccc34)CC2)CSC12CCCCC2`, the results for the IC50 in [1] and in assay [2] were 2 nM and 18 nM, respectively. The Activity with Rattus norvegicus [3] stood at 100%.
With `CC1(C)SCN(CCCCN2CCN(c3cn(-c4ccccc4)c4ccccc34)CC2)C1=O`, the IC50 in [1] is 1730 nM; in assay [2], 294 nM; at D(2) dopamine receptor it was 191 nM. The same molecule yielded a 50% effective dose (ED50) in assay [4] of 19.6 mg/kg.
As for `O=C1N(CCCCN2CCN(c3nsc4cc(Cl)ccc34)CC2)CSC12CCCCC2`, the results for the IC50 (in assay [1]; in assay [2]; at D(2) dopamine receptor) were 969 nM, 1060 nM and 671 nM, respectively. The Activity in the assay on Rattus norvegicus [9] stood at 0%; in assay [6], 80%.
On to `CC1(C)SC(C)(C)N(CCCCN2CCN(c3nsc4ccccc34)CC2)C1=O`, for which the IC50 in assay [1] came out at 17 nM; in [2], 3.5 nM; at D(2) dopamine receptor, 201 nM.
Regarding `CC1SC(C)(C)C(=O)N1CCCCN1CCN(c2nsc3ccccc23)CC1` (stereo not drawn), the IC50 was found to be 7 nM in [1] and 2 nM in assay [2]. The Activity turned out to be 0% in the assay with Rattus norvegicus [9] and 40% in assay [6].
Regarding `CC1(C)SCN(CCCCN2CCN(c3cccc(C(F)(F)F)c3)CC2)C1=O`, the figures for the 50% inhibitory concentration (IC50) (in [1]; in assay [2]; at D(2) dopamine receptor) were 7 nM, 90 nM and 1640 nM, respectively.
Turning to `O=C1N(CCCCN2CCN(c3nsc4ccccc34)CC2)CSC12Cc1ccccc1C2`, the IC50 in assay [1] worked out at 52 nM; in [2] it was 1110 nM; on D(2) dopamine receptor, 697 nM. Further, the values for the Activity (in the assay on Rattus norvegicus [5]; in [6]) were 50% and 0%, respectively.
In the case of `CC1SC(C)(C)C(=O)N1CCCCN1CCN(c2cn(-c3ccccc3)c3ccccc23)CC1` (stereo not drawn), the IC50 in [1] was found to be 2550 nM; in assay [2], 186 nM; on D(2) dopamine receptor, 200 nM. Besides, the Activity in the assay with Rattus norvegicus [5] amounted to 67%; in assay [6], 0%.
Regarding `CC1SC(C)(C)C(=O)N1CCCCN1CCN(c2cn(-c3ccc(F)cc3)c3ccccc23)CC1` (stereo not drawn), the IC50 in [1] was determined as 3050 nM; in assay [2], 126 nM; at D(2) dopamine receptor it was 59 nM. The molecule further yielded an ED50 in assay [4] of 16.4 mg/kg.
Turning to `CC1SCN(CCCCN2CCN(c3nsc4ccccc34)CC2)C1=O` (stereo not drawn), the IC50 is 11 nM in [1], 5 nM in [2] and 86 nM on D(2) dopamine receptor. Also, the results for the Activity (with Rattus norvegicus [9]; in assay [6]) were 0% and 17%, respectively.
Take `O=C1C(CC(F)(F)F)SCN1CCCCN1CCN(c2nsc3ccccc23)CC1` (stereo not drawn): the values for the IC50 (in assay [1]; at D(2) dopamine receptor) were 3 nM and 136 nM, respectively. The molecule also showed an ED50 in assay [4] of 3.3 mg/kg.
With `O=C1N(CCCCN2CCN(c3csc4ccccc34)CC2)CSC12CCCC2`, the IC50 in assay [1] is 2 nM; in assay [2], 16 nM; on D(2) dopamine receptor it was 244 nM.
For `O=C1N(CCCCN2CCN(c3nsc4ccccc34)CC2)CSC12CCCC2`, the IC50 in [1] is 2 nM; in assay [2] it was 3 nM. The Activity in the assay on Rattus norvegicus [3] came out at 90%.
`COc1ccccc1N1CCN(CCCCN2CSC(C)(C)C2=O)CC1`: the IC50 in assay [1] was determined as 11 nM; in assay [2], 588 nM; on D(2) dopamine receptor it was 548 nM.
The corresponding values for `O=C1CSCN1CCCCN1CCN(c2nsc3ccccc23)CC1` are 11 nM, 7 nM and 224 nM.
Turning to `CC(C)(O)C1SCN(CCCCN2CCN(c3nsc4ccccc34)CC2)C1=O` (stereo not drawn), the IC50 in [1] is 12 nM; in [2], 18.9 nM; on D(2) dopamine receptor, 29 nM. The molecule also had an ED50 in assay [4] of 2.3 mg/kg.
In assay [4], `Cc1nc2n(c(=O)c1CCN1CCC(c3noc4cc(F)ccc34)CC1)CCCC2` [RISPERIDONE] yielded an ED50 of 3.2 mg/kg.

For the origin of these results see ChEMBL document CHEMBL1129432, “Structure-activity relationships of a series of novel (piperazinylbutyl)thiazolidinone antipsychotic agents related to 3-[4-[4-(6-fluorobenzo[b]thien-3-yl)-1-piperazinyl]butyl]-2,5,5- trimethyl-4-thiazolidinone maleate” (J Med Chem, 1996).
